One series deals with T1, Urokinase (sc-urokinase) (Homo sapiens, UniProt P00749).
T1 construct: purchased Ribosepharm GmbH, Haan, Germany
In words: In vitro inhibition of urokinase (chromogenic substrate, Dixon Ki). Format: biochemical. The note with it: in vitro inhibition of urokinase, 25° C, pH 8.0, 5% ethanol; read-out: Ki. As for the experimental part: To determine the inhibitory activity, 200 μl of Tris buffer (0.05 mol/l, containing the inhibitor, 0.154 mol/l NaCl, 5% ethanol pH 8.0), 25 μl of substrate (Pefachrome UK or Bz-βAla-Gly-Arg-pNA in H2O; Pentapharm Ltd., Basle, Switzerland) and 50 μl of sc-urokinase (Ribosepharm GmbH, Haan, Germany) were incubated at 25° C. After 3 min the reaction was stopped by adding 25 μl of acetic acid (50%), and the absorption at 405 nm was determined by means of a Microplate Reader (MR 5000, Dynatech, Denkendorf, Germany). Ki values were determined according to Dixon by linear regression using a computer program. The Ki values are the mean values of at least three determinations with a standard deviation of less than 25%.

In series [1] the test system is BN-472 rat mammary carcinoma. The experiment in a line: BN-472 rat mammary carcinoma model, single agent and combination with cytotoxics (Example 11). Particulars: for anti-tumor effects (tumor size development, final tumor weight): once weekly administration i.v.
Method: WX-UK1 was dissolved in 5% w/v of D-mannitol to the appropriate dosage and administered once daily or twice weekly either subcutaneously (s.c.) or intraperitonally (i.p.).
Epirubicin (0.75-3 mg/kg body wight), paclitaxel (5-7.5 mg/kg) or 5-FU (20 and 40 mg/kg) was given once weekly by i.v. injection into the external jugular vein.
Control rats received the vehicle 5% w/v of D-mannitol once daily s.c.
A donor rat bearing a tumor of 20×20 mm was sacrificed, the tumor harvested ant the cortex part was sliced into cubes of approximately 10 mm^3 and the transplated orthotopically under the mammary fad pads of female Brown Norway rats.
Treatment was started three or six days (5-FU experiment) after tumor inoculation. Each treatment group consisted of 15 to 21 rats.
Tumor load is plotted as the average±standard error of the mean (SEM).
Tumor, organ weights as well as lung foci counts are presented in Box-Whisker graphs. […] Whiskers extend to the extreme lower 5th and upper 95th percentiles of values. Dots represent individual data.
P-values represent significance levels of pairwise comparisons of treatment groups versus vehicle control. For combination therapy experiments the P-values for the comparison of a cytostatic mono-therapy versus the combination therapy is given.

By Ki is commonly meant the equilibrium dissociation constant of an inhibitor or competing ligand from its target. On to `CCOC(=O)N1CCN(C(=O)C(Cc2cccc(C(=N)N)c2)NS(=O)(=O)c2c(C(C)C)cc(C(C)C)cc2C(C)C)CC1.Cl` (centres unmarked) [D,L, Nα-(2,4,6-triisopropylphenylsulfonyl)-3-amidino-(D,L)-phenylalanine 4-ethoxycarbonylpiperazide hydrochloride], for which, on Urokinase (sc-urokinase), the Ki was determined as 960 nM.

On to `O=c1[nH]cc(F)c(=O)[nH]1` [Example 5-FU, 5-fluorouracil, reference compound], for which the “anti-tumor effects (tumor size development, final tumor weight)” value (“anti-tumor effects” for short) in series [1] is reported as “Dose-dependent anti-tumor effects”.

Take `COc1cccc2c1C(=O)c1c(O)c3c(c(O)c1C2=O)C[C@@](O)(C(=O)CO)C[C@@H]3O[C@H]1C[C@H](N)[C@@H](O)[C@H](C)O1` [epirubicin, reference compound]: the “anti-tumor effects” value in series [1] is given as “Dose-dependent anti-tumor effects”. Moreover, the thymus atrophy entry in series [1] (rat, in vivo) was “thymus atrophy”.

In the case of `CC(=O)O[C@H]1C(=O)[C@@]2(C)[C@H]([C@H](OC(=O)c3ccccc3)[C@]3(O)C[C@H](OC(=O)[C@H](O)[C@@H](NC(=O)c4ccccc4)c4ccccc4)C(C)=C1C3(C)C)[C@]1(OC(C)=O)CO[C@@H]1C[C@@H]2O` [paclitaxel, reference compound], in series [1], the “anti-tumor effects” value was “Dose-dependent anti-tumor effects”.

The values are drawn from patent US7342018B2, “Urokinase inhibitors and uses thereof” (Wilex AG, priority 1998, dated 2008).
